Data reported in patent publication US12103919B2, “3-(5-oxy)-1-oxoisoindolin-2-yl)piperidine-2,6-dione derivatives and uses thereof” (NOVARTIS AG, priority 2021, dated 2024).

Legend:
[1] = system: HbF; details: human primary erythroid cells; cited from earlier work
[2] = system: HbF; details: cited from earlier work
[3] = system: HBG1/2; experiment: Analysis of HbF gene expression by RNA-seq after CRISPR/Cas9 knockout of WIZ in mPB CD34+ cells; format: cell-based, human; details: WIZ KO vs scrambled gRNA control, 7 days erythroid differentiation, FIG. 1A
Method: Mobilized peripheral blood (mPB) CD34+ cells (AllCells, LLC) were maintained in StemSpan™ serum-free expansion media (SFEM) ([…] Technologies Inc.) supplemented with 50 ng/mL each of rhTPO, rhlL-6, rhFLT3L, rhSCF for 2-3 days prior to shRNA transduction or targeted ribonucleoprotein (RNP) electroporation targeting WIZ. All cytokines were obtained from Peprotech®, Inc. Cell cultures were maintained at 37° C. and 5% CO2 in a humidified tissue culture incubator.
Alt-R CRISPR-Cas9 crRNA and tracrRNA (5′-[…]-3′; SEQ ID NO: 7) were purchased from Integrated DNA Technologies, Inc. Equimolar tracrRNA was annealed with WIZ targeting crRNA (Table 3) in Tris buffer (10 mM, pH 7.5) by heating at 95° C. for 5 minutes using a polymerase chain reaction (PCR) machine (Bio-Rad) followed by cooling to room temperature on the benchtop. Subsequently, a ribonucleoprotein (RNP) complex was generated by mixing annealed tracrRNA:crRNA with 6 ug of Cas9 at 37° C. for 5 minutes in 1× buffer containing HEPES (100 mM), KCl (50 mM), MgCl2 (2.5 mM), glycerol (0.03%), DTT (1 mM) and Tris pH 7.5 (2 mM). […]
Two independent, targeted CRISPR/Cas9 knockout (KO) of WIZ were done using WIZ_6 and WIZ_18 gRNAs or a non-targeting scrambled gRNA negative control in mPB CD34+ HSCs. […] The quality of isolated RNA was determined before sequencing using Agilent RNA 6000 Pico Kit (Agilent, catalogue #5067-1513). […]

Row | Compound | HbF induction ex vivo [1] | HbF induction in vivo [2] | HBG1/2 expression upon erythroid differentiation [3]
1 | Nc1cccc2c1CN(C1CCC(=O)NC1=O)C2=O (stereo not drawn) [lenalidomide] | induce HbF ex vivo | induce HbF | 
2 | Nc1cccc2c1C(=O)N(C1CCC(=O)NC1=O)C2=O (stereo not drawn) [pomalidomide] | induce HbF ex vivo | induce HbF | 
3 | WIZ_6: WIZ targeting crRNA/gRNA, AACATCTTTCGGGCCGTAGG, SEQ ID NO 9 (listed as DNA, chemistry not given here) |  |  | upregulation of fetal hemoglobin genes (HBG1/2)
4 | WIZ_18: WIZ targeting crRNA/gRNA, AGTGGGTGCGGCACTTACAG, SEQ ID NO 14 (listed as DNA, chemistry not given here) |  |  | upregulation of fetal hemoglobin genes (HBG1/2)
